Assays:
[1] = Half life in iv dosed rat; type: ADME, organism-based; conditions: in vivo
[2] = Oral bioavailability in rat; type: ADME, organism-based; conditions: in vivo

half-life [1]: 99 h
bioavailability [2]: 21%
Compound: CCCN(CCC)CCCCN(C)Cc1ccc(CN(Cc2ncc[nH]2)Cc2nccn2C)cc1

Source: ChEMBL document CHEMBL1240366, “Blockade of X4-tropic HIV-1 cellular entry by GSK812397, a potent noncompetitive CXCR4 receptor antagonist” (Antimicrob Agents Chemother, 2010)
